Measured values from ChEMBL document CHEMBL4000221 (Bioorg Med Chem Lett, 2017).
pEC50, pIC50: −log10 of the molar value.

Key:
[1] = target: T1, Sodium-dependent serotonin transporter (Homo sapiens, UniProt P31645)
[2] = target: T1, Sodium-dependent serotonin transporter; experiment: Inhibition of [3H]5-HT uptake by SERT primary site (S1) (unknown origin) expressed in African green monkey COS1 cells after 10 mins by TopCount scintillation counting method; assay type: cell-based
[3] = target: T1, Sodium-dependent serotonin transporter; remark: listed apart in the source
[4] = target: T1, Sodium-dependent serotonin transporter; remark: listed apart in the source
Homo sapiens [5] = species on record: Homo sapiens; experiment: Selectivity ratio of EC50 for inhibition of [3H]-S-citalopram dissociation from human SERT allosteric modulator site (S2) expressed in African green monkey COS7 cell membranes to IC50 for displacement of [3H]-S-citalopram from human SERT primary site (S1) expressed in African green monkey COS7 cell membranes
Homo sapiens [6] = species on record: Homo sapiens; experiment: Selectivity ratio of EC50 for inhibition of [3H]-S-citalopram dissociation from SERT allosteric modulator site (S2) (unknown origin) expressed in African green monkey COS1 cell membranes to IC50 for [3H]5-HT uptake by SERT primary site (S1) (unknown origin) expressed in African green monkey COS1 cells; assay type: cell-based

T1 sequence (P31645 whole entry): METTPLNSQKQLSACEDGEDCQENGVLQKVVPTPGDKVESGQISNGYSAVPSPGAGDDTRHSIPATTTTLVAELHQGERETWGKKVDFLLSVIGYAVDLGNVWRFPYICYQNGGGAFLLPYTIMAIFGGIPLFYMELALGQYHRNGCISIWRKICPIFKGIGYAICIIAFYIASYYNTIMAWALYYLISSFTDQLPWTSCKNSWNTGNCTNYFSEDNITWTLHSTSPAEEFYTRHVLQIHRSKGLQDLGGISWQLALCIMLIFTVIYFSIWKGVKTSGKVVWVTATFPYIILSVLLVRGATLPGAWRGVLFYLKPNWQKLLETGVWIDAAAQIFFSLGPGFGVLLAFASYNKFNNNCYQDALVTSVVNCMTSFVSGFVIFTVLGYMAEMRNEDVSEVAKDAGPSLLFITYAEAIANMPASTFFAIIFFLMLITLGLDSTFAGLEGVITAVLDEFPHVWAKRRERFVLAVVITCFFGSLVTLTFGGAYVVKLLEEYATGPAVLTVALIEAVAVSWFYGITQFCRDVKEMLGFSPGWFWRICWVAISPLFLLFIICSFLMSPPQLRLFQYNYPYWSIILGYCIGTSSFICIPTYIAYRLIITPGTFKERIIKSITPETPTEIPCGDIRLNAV

| SMILES | pEC50 [1] | pIC50 [2] | pEC50 [3] | pIC50 [4] | Selectivity ratio (Homo sapiens [5]) | Selectivity ratio (Homo sapiens [6]) |
| --- | --- | --- | --- | --- | --- | --- |
| CN(C)CCCC1(c2cc(Cl)cc(Cl)c2)OCc2ccccc21 (single isomer, unassigned; enantiomer 2) [listing 1 of 2 here] | 4.70 | 6.52 | – | – | – | – |
| CCN(C)CCC[C@@]1(c2ccc(F)cc2)OCc2cc(C#N)ccc21 | – | – | 5.11 | 6.55 | 28 | – |
| CN(C)CCCC1(c2cc(Cl)cc(Cl)c2)OCc2ccccc21 (stereo in doubt; 4) [listing 1 of 2 here] | – | – | – | – | – | 44 |
| CN(C)CCCC1(c2cccc3ccccc23)OCc2cc(C#N)ccc21 (stereo in doubt; 2) [listing 1 of 2 here] | 4.72 | 6.60 | – | – | – | – |
| CN(C)CCCC1(c2cc(Cl)cc(Cl)c2)OCc2ccccc21 (single isomer, unassigned; enantiomer 1) [listing 1 of 2 here] | 5.06 | 6.46 | – | – | – | – |
| CCCCN(C)CCC[C@]1(c2ccc(F)cc2)OCc2cc(C#N)ccc21 | – | – | 4.84 | 5.96 | 13 | – |
| CN(C)CCCC1(c2cccc3ccccc23)OCc2cc(C#N)ccc21 (single isomer, unassigned; enantiomer 2) [listing 1 of 2 here] | 4.72 | 6.55 | – | – | – | – |
| CN(C)CCCC1(c2ccc(Cl)c(Cl)c2)OCc2ccccc21 (stereo not drawn) | 4.53 | 7.89 | – | – | – | 2300 |
| CCCCCN(C)CCC[C@@]1(c2ccc(F)cc2)OCc2cc(C#N)ccc21 | – | – | 5.80 | 7.12 | 21 | – |
| CN(C)CCCC1(c2ccc3ccccc3c2)OCc2cc(C#N)ccc21 (stereo in doubt; 1) [listing 1 of 2 here] | 4.17 | 7.47 | – | – | – | – |
| CN(C)CCCC1(c2ccc3ccccc3c2)OCc2cc(C#N)ccc21 (single isomer, unassigned) [listing 1 of 2 here] | 4.39 | 8.00 | – | – | – | – |
| CN(C)CCCC1(c2cc(Cl)cc(Cl)c2)OCc2ccccc21 (stereo in doubt; 4) [listing 2 of 2 here] | 4.82 | 6.47 | – | – | – | – |
| CN(C)CCCC1(c2ccc3ccccc3c2)OCc2cc(C#N)ccc21 (single isomer, unassigned) [listing 2 of 2 here] | – | – | – | – | – | 4100 |
| CN(C)CCCC1(c2ccc3ccccc3c2)OCc2cc(C#N)ccc21 (single isomer, unassigned; enantiomer 2) [listing 1 of 2 here] | – | – | – | – | – | 370 |
| CN(C)CCCC1(c2cc(Cl)cc(Cl)c2)OCc2ccccc21 (single isomer, unassigned; enantiomer 2) [listing 2 of 2 here] | – | – | – | – | – | 67 |
| CN(C)CCCC1(c2cccc3ccccc23)OCc2cc(C#N)ccc21 (single isomer, unassigned; enantiomer 2) [listing 2 of 2 here] | – | – | – | – | – | 68 |
| CCCN(C)CCC[C@@]1(c2ccc(F)cc2)OCc2cc(C#N)ccc21 | – | – | 5.23 | 6.72 | 31 | – |
| CN(C)CCCC1(c2ccc(F)cc2)OCc2ccc3ccccc3c21 (stereo not drawn) | 4.42 | 7.92 | – | – | – | 3200 |
| CN(C)CCCC1(c2ccc3ccccc3c2)OCc2cc(C#N)ccc21 (single isomer, unassigned; enantiomer 2) [listing 2 of 2 here] | 4.26 | 6.82 | – | – | – | – |
| CN(C)CCCC1(c2cc(Cl)cc(Cl)c2)OCc2ccccc21 (single isomer, unassigned; enantiomer 1) [listing 2 of 2 here] | – | – | – | – | – | 25 |
| CN(C)CCCC1(c2cccc3ccccc23)OCc2cc(C#N)ccc21 (single isomer, unassigned; enantiomer 1) [listing 1 of 2 here] | 4.85 | 6.13 | – | – | – | – |
| CN(C)CCCC1(c2ccc(F)cc2)OCc2cc3ccccc3cc21 (stereo not drawn) | 4.02 | 8.10 | – | – | – | 12000 |
| CCCCN(C)CCC[C@@]1(c2ccc(F)cc2)OCc2cc(C#N)ccc21 | – | – | 5.54 | 6.80 | 18 | – |
| CN(C)CCCC1(c2ccc(F)cc2)OCc2c1ccc1ccccc21 (stereo not drawn) | 4.51 | 8.40 | – | – | – | 7800 |
| CCCN(C)CCC[C@]1(c2ccc(F)cc2)OCc2cc(C#N)ccc21 | – | – | 4.69 | 5.62 | 8.5 | – |
| CN(C)CCCC1(c2cccc3ccccc23)OCc2cc(C#N)ccc21 (single isomer, unassigned; enantiomer 1) [listing 2 of 2 here] | – | – | – | – | – | 19 |
| CN(C)CCCC1(c2cccc3ccccc23)OCc2cc(C#N)ccc21 (stereo in doubt; 2) [listing 2 of 2 here] | – | – | – | – | – | 76 |
| CN(C)CCCC(=O)c1ccc2c(c1)COC2(CCCN(C)C)c1ccc(F)cc1 (stereo not drawn) | 3.15 | 8.80 | – | – | – | 450000 |
| CN(C)CCCC1(c2ccc3ccccc3c2)OCc2cc(C#N)ccc21 (stereo in doubt; 1) [listing 2 of 2 here] | – | – | – | – | – | 2000 |
| CCN(C)CCC[C@]1(c2ccc(F)cc2)OCc2cc(C#N)ccc21 | – | – | 4.70 | 5.64 | 8.7 | – |
